Measurements: patent US10842152B2, “Isothiazolo-based bicycles, processes for their preparation and their use as herbicides and/or plant growth regulators” (Bayer CropScience Aktiengesellschaft, priority 2017, dated 2020)

Experiments:
Viola tricolor [1] = experiment: Herbicidal effect post-emergence; type: in vivo; settings: 320 g/ha
Description: (§1) Herbicidal activities of the compounds of the formulae (G1) or (G2) according to the invention were investigated against the following harmful plants: • ALOMY=Alopecurus myosuroides • ECHCG=Echinochloa crus-galli • SETVI=Setaria viridis • ABUTH=Abutilon theophrasti • AMARE=Amaranthus retroflexus • PHBPU=Pharbitis purpurea • POLCO=Polygonum convolvulus (=Fallopia convolvulus) • STEME=Stellaria media • VIOTR=Viola tricolor
(§2) Seeds of mono- and dicotyledonous weed plants and crop plants are sown in wood-fiber pots in sandy loam, covered with soil and grown in a greenhouse under controlled growth conditions. 2 to 3 weeks after sowing, the test plants are sprayed in the single-leaf stage. The compounds according to the invention, formulated in form of wettable powders (WP) or as emulsifiable concentrates (EC), are then sprayed onto the green plant parts as aqueous suspension or emulsion, with the addition of 0.5% of an additive, at an application rate of 600 l of water/ha (converted). After the test plants had been in the greenhouse for ca. 3 weeks under optimum growth conditions, the effect of the preparations is assessed visually in comparison with untreated controls (herbicidal effect in percent (%): 100% effect=plants have died off, 0% effect=as control plants).

Abutilon theophrasti = experiment: Herbicidal effect post-emergence; type: in vivo; settings: 320 g/ha, visual grading after ca. 3 weeks (Table 8)
Description: as §1, §2

Amaranthus retroflexus [2] = experiment: Herbicidal effect post-emergence; type: in vivo; settings: 320 g/ha
Description: as §1, §2

Setaria viridis [3] = experiment: Herbicidal effect post-emergence; type: in vivo; settings: 320 g/ha
Description: as §1, §2

Stellaria media [4] = experiment: Herbicidal effect pre-emergence; type: in vivo; settings: 320 g/ha, visual grading after ca. 3 weeks vs untreated controls
Description: as §1
(§3) Seeds of mono- and dicotyledonous weed plants and crop plants are sown in wood-fiber pots in sandy loam and covered with soil. The compounds according to the invention, formulated in the form of wettable powders (WP) or as emulsifiable concentrates (EC), are then applied to the surface of the covering soil as aqueous suspension or emulsion, with the addition of 0.5% of an additive, at an application rate of 600 l of water/ha (converted).
(§4) Following treatment, the pots are placed in a greenhouse and kept under optimum growth conditions for the test plants. The visual grading of the damage to the test plants is carried out after ca. 3 weeks in comparison to untreated controls (herbicidal effect in percent (%): 100% effect=plants have died off, 0% effect=as control plants).

Alopecurus myosuroides = experiment: Herbicidal effect pre-emergence; type: in vivo; settings: 320 g/ha, visual grading after ca. 3 weeks vs untreated controls
Description: as §1, §3, §4

Viola tricolor [5] = experiment: Herbicidal effect pre-emergence; type: in vivo; settings: 320 g/ha, visual grading after ca. 3 weeks vs untreated controls
Description: as §1, §3, §4

Amaranthus retroflexus [6] = experiment: Herbicidal effect pre-emergence; type: in vivo; settings: 320 g/ha, visual grading after ca. 3 weeks vs untreated controls
Description: as §1, §3, §4

Setaria viridis [7] = experiment: Herbicidal effect pre-emergence; type: in vivo; settings: 320 g/ha, visual grading after ca. 3 weeks vs untreated controls
Description: as §1, §3, §4

MATIN [8] = experiment: Herbicidal effect pre-emergence; type: in vivo, Matricaria inodora; settings: 320 g/ha, visual grading after ca. 3 weeks vs untreated controls
Description: as §3, §4

Pharbitis purpurea = experiment: Herbicidal effect post-emergence; type: in vivo; settings: 320 g/ha, visual grading after ca. 3 weeks (Table 7)
Description: as §1, §2

Stellaria media [9] = experiment: Herbicidal effect post-emergence; type: in vivo; settings: 320 g/ha, visual grading after ca. 3 weeks (Table 7)
Description: as §1, §2

[10] = test system: Polygonum convolvulus (=Fallopia convolvulus); experiment: Herbicidal effect post-emergence; type: in vivo; settings: 320 g/ha, visual grading after ca. 3 weeks (Table 7)
Description: as §1, §2

MATIN [11] = experiment: Herbicidal effect post-emergence; type: in vivo, Matricaria inodora; settings: 320 g/ha, visual grading after ca. 3 weeks (Table 7)
Description: as §2

[12] = visual grading after ca. 3 weeks (Table 8)
[13] = visual grading after ca. 3 weeks (Table 7)

SMILES | herbicidal effect VIOTR (Viola tricolor [1]; [12]) [%] | herbicidal effect ABUTH (Abutilon theophrasti) [%] | herbicidal effect AMARE (Amaranthus retroflexus [2]; [12]) [%] | herbicidal effect SETVI (Setaria viridis [3]; [12]) [%] | herbicidal effect STEME (Stellaria media [4]) [%] | herbicidal effect ALOMY (Alopecurus myosuroides) [%] | herbicidal effect VIOTR (Viola tricolor [5]) [%] | herbicidal effect AMARE (Amaranthus retroflexus [6]) [%] | herbicidal effect SETVI (Setaria viridis [7]) [%] | herbicidal effect MATIN (MATIN [8]) [%] | herbicidal effect PHBPU (Pharbitis purpurea) [%] | herbicidal effect STEME (Stellaria media [9]) [%] | herbicidal effect POLCO [10] [%] | herbicidal effect VIOTR (Viola tricolor [1]; [13]) [%] | herbicidal effect AMARE (Amaranthus retroflexus [2]; [13]) [%] | herbicidal effect SETVI (Setaria viridis [3]; [13]) [%] | herbicidal effect MATIN (MATIN [11]) [%]
CCC(=O)Nc1nsc2c(=O)n(CC3CCCCC3Cl)cc(Cl)c12 (racemic) [Example I-172] | 100 | 100 | 100 | 80 | 100 | 100 | 100 | 100 | 100 | 100 |  |  |  |  |  |  | 
CCC(=O)OCC1Cc2c(N)nsc2C(=O)N1CC1CCCCC1 (centres unmarked) [Example I-039] | 100 | 100 | 100 | 100 |  |  | 100 | 100 | 100 |  |  |  |  |  |  |  | 
Nc1nsc2c(=O)n(Cc3cc(F)c(F)cc3F)cc(F)c12 [Example I-163] | 90 | 90 | 100 | 90 | 100 | 100 | 100 | 100 | 100 | 100 |  |  |  |  |  |  | 
O=C(Nc1nsc2c(=O)n(CC3CCCCC3Cl)cc(Cl)c12)C(F)(F)F (racemic) [Example I-171] |  |  |  |  | 100 | 100 | 100 | 100 | 100 | 100 | 100 | 100 | 100 | 100 | 100 | 100 | 90
Nc1nsc2c(=O)n(CC3CCCCC3)cc(Cl)c12 [Example I-064] |  |  |  |  | 100 | 100 | 100 | 100 | 100 | 100 | 100 | 100 | 100 | 100 | 100 | 100 | 100
CCC(=O)Nc1nsc2c(=O)n(CC3CCCCC3)cc(Cl)c12 [Example I-083] | 100 | 80 | 100 | 100 | 100 | 100 | 100 | 100 | 100 | 100 |  |  |  |  |  |  | 
O=C(Nc1nsc2c(=O)n(CC3CCCCC3)cc(F)c12)C(F)(F)C(F)(F)F [Example I-127] |  |  |  |  | 100 | 100 | 100 | 100 | 100 | 100 | 100 | 100 | 100 | 100 | 100 | 100 | 100
O=C(Nc1nsc2c(=O)n(Cc3cc(F)c(F)cc3F)cc(F)c12)C(F)F [Example I-165] |  |  |  |  | 100 | 100 | 100 | 100 | 100 | 100 | 80 | 100 | 100 | 100 | 100 | 90 | 100
